Results: patent US20230174584A1, “Antibiotic Compounds” (priority 2019, published 2023)

Legend:
[1] = test system: MRSA USA300; experiment: MIC assay in the presence of sheep serum; type: cell-based, Staphylococcus aureus; conditions: MRSA USA300, TSB + 0.002% p80 + 50% sheep serum
Method: The antibacterial activity of the compounds was tested against a panel of bacteria, including Gram-positive bacteria (S. aureus ATCC29213, S. aureus USA300, S. aureus LIM-2, NR-45881, S. aureus HIP13419, NR-46413, E. faecium E155, E. faecium E7314, E. faecium E980, E. faecalis E1246, E. faecalis E7406 and S. pneumonia 153). The antibacterial activity of the compounds was further tested against S. aureus NY-155, NR-46236, S. aureus HIP12864, NR-46074, S. aureus 880 (BR-VRSA), NR-49120, E. faecalis E1246, E. faecalis E7604, as well as some Gram-negative bacteria (Escherichia coli and Klebsiella pneumoniae). Minimum inhibitory concentrations (MICs) in μg/mL were performed according to the CLSI guidelines. From glycerol stocks, bacterial strains were cultured on blood agar plates and incubated at 37° C. for 18 h. A single colony was transferred to tryptic soy broth (TSB) with 0.002% polysorbate 80 (p80). For the Enterococcus, VISA and VRSA strains, the cultures were grown at 37° C. until the optical density of the suspension reached a level equivalent to the 0.5 McFarland standard. The bacterial suspensions were diluted in TSB with 0.002% p80 to reach a bacterial cell density of 10^6 CFU/mL. In case of the other (vancomycin-sensitive) S. aureus strains, the direct colony suspension method was used. For these strains, after transfer of the colonies to TSB with 0.002% p80, they were immediately diluted to 10^6 CFU/mL, instead of incubated prior to this dilution. In the case of S. pneumonia, direct colony suspension was used by immediately suspending multiple colonies from fresh blood agar plates in TSB+0.002% p80 to an OD600 of 0.5 and subsequent dilution to 10^6 CFU mL^−1 in TSB+0.002% p80+5% lysed horse blood. Antibiotic dilutions for this strains were also made in TSB+0.002% p80+5% lysed horse blood. Both agar and microplates containing S. pneumonia were incubated at 37° C. with 5% CO2 for 24 h with constant shaking (600 rpm). […] The cultures were grown to exponential phase (OD600=0.5) at 37° C. […] In polypropylene 96-well microtiter plates, test compounds were added in biological triplicates and serial diluted 2-fold by transfer and mixing from one well to the next to achieve a final volume of 50 μL per well. An equal volume of bacterial suspension (10^6 CFU mL^−1) was added to the wells. The plates were sealed with breathable membranes and incubated at 37° C. for 24 h with constant shaking (600 rpm). In polypropylene microtiter plates, 100 μL of the test compounds was added to the first row in biological triplicates, and 50 μL of media was added to the other wells. The compounds were subjected to serial dilution by transfer and mixing of 50 μL from one well to the next. Subsequently, 50 μL of bacterial suspension (10^6 CFU/mL) was added to the wells. The plates were sealed with breathable membranes and incubated at 37° C. for 24 h with constant shaking (600 rpm). Positive growth control consisted of wells with bacterial suspension and without antibiotic. Negative growth control consisted of solely media without bacterial suspension or antibiotic. The MICs were determined from the median of a minimum of triplicates.
The activity of the compounds was further assessed against MRSA USA300 strain in the presence of sheep) serum in another MIC assay. The cultures that grew in the presence of serum used TSB+0.002% P80+50% sheep serum as growth media, as opposed to normal MICs done in only TSB+0.002% P80.

[2] = test system: HepG2 human hepatocellular carcinoma cells; experiment: Cytotoxicity assay for HepG2 (MTT); type: cell-based; conditions: MTT, HepG2, 24 h, 10% FBS
Method: (§1) Mammalian cytotoxicity assays were performed by Cyprotex. Cytotoxicity was assessed using the MTT assay. Briefly, HepG2 human hepatocellular carcinoma cells (100 μL per well) were plated on black-walled clear-bottomed polystyrene 96-well tissue culture treated plates 24 h prior to dosing the cells. The cells were dosed with test compound (dissolved in 0.5% DMSO in growth media containing 10% FBS) at a range of concentrations (0.04 μM, 0.1 μM, 0.4 μM, 1 μM, 4 μM, 10 μM, 40 μM, 100 μM). After 23 h period the cells were loaded with the MTT dye (yellow; 3-(4,5-dimethyl-2-thiazolyl)-2,5-diphenyl-2H-tetrazolium bromide) followed by an additional 1 h incubation (resulting in a total incubation time with antibiotics of 24 h). Subsequently, the plates are dried and solubilized in DMSO followed by scanning at 570 nm using a microplate absorbance reader. Cell viability is determined by conversion of the soluble MTT to insoluble formazan (purple) by mitochondrial […] in live cells. Production of formazan indicates […]. Carbonyl cyanide 3-chlorophenylhydrazone is used as no response control and chlorpromazine is used as control known to be cytotoxic. Solvent control wells (0.5% DMSO in growth media containing 10% FBS) are then used to determine significance limits for wells that have a greater than expected fraction of low or high responders. The minimum effective concentration is determined from the lowest concentration whose mean value exceeds the significance level, provided either a clear dose-response relationship is observed, or at least two consecutive concentration points are above the significance level. AC50 values are also determined provided a clear dose-response relationship is observed. Experiment was performed in triplicates.

[3] = Cytotoxicity assay for HepG2 (MTT); type: cell-based, human; conditions: human; MTT, HepG2, 24 h, 10% FBS, n = 3; read-out: AC50
Method: as §1

Row | SMILES | MIC [1] | AC50 at 24 h [3] | further results
1 | CCCCCCCCNC(N)=Nc1ccc(CN[C@@]2(C)C[C@H](O[C@H]3[C@H](Oc4c5cc6cc4Oc4ccc(cc4Cl)[C@@H](O)[C@@H](NC(=O)[C@@H](CC(C)C)NC)C(=O)N[C@@H](CC(N)=O)C(=O)N[C@H]6C(=O)N[C@H]4C(=O)N[C@H](C(=O)N[C@H](C(=O)O)c6cc(O)cc(O)c6-c6cc4ccc6O)[C@H](O)c4ccc(c(Cl)c4)O5)O[C@H](CO)[C@@H](O)[C@@H]3O)O[C@@H](C)[C@H]2O)cc1 [Compound 6] | 0.063 µg/mL | – | –
2 | CCCCCCN(CCCCCC)C(N)=Nc1ccc(CN[C@@]2(C)C[C@H](O[C@H]3[C@H](Oc4c5cc6cc4Oc4ccc(cc4Cl)[C@@H](O)[C@@H](NC(=O)[C@@H](CC(C)C)NC)C(=O)N[C@@H](CC(N)=O)C(=O)N[C@H]6C(=O)N[C@H]4C(=O)N[C@H](C(=O)N[C@H](C(=O)O)c6cc(O)cc(O)c6-c6cc4ccc6O)[C@H](O)c4ccc(c(Cl)c4)O5)O[C@H](CO)[C@@H](O)[C@@H]3O)O[C@@H](C)[C@H]2O)cc1 [Compound 12] | 0.063 µg/mL | – | AC50 ([2]; n = 3): > 100 µM
3 | CN[C@H](CC(C)C)C(=O)N[C@H]1C(=O)N[C@@H](CC(N)=O)C(=O)N[C@H]2C(=O)N[C@H]3C(=O)N[C@H](C(=O)N[C@H](C(=O)O)c4cc(O)cc(O)c4-c4cc3ccc4O)[C@H](O)c3ccc(c(Cl)c3)Oc3cc2cc(c3O[C@@H]2O[C@H](CO)[C@@H](O)[C@H](O)[C@H]2O[C@H]2C[C@](C)(NCc3ccc(N=C(N)NC/C=C(\C)CCC=C(C)C)cc3)[C@H](O)[C@H](C)O2)Oc2ccc(cc2Cl)[C@H]1O [Compound 14] | 0.063 µg/mL | – | –
4 | CN[C@H](CC(C)C)C(=O)N[C@H]1C(=O)N[C@@H](CC(N)=O)C(=O)N[C@H]2C(=O)N[C@H]3C(=O)N[C@H](C(=O)N[C@H](C(=O)O)c4cc(O)cc(O)c4-c4cc3ccc4O)[C@H](O)c3ccc(c(Cl)c3)Oc3cc2cc(c3O[C@@H]2O[C@H](CO)[C@@H](O)[C@H](O)[C@H]2O[C@H]2C[C@](C)(N)[C@H](O)[C@H](C)O2)Oc2ccc(cc2Cl)[C@H]1O [Vancomycin, reference compound] | – | > 100 µM | –
5 | CCCCCCCCCNC(N)=Nc1ccc(CN[C@@]2(C)C[C@H](O[C@H]3[C@H](Oc4c5cc6cc4Oc4ccc(cc4Cl)[C@@H](O)[C@@H](NC(=O)[C@@H](CC(C)C)NC)C(=O)N[C@@H](CC(N)=O)C(=O)N[C@H]6C(=O)N[C@H]4C(=O)N[C@H](C(=O)N[C@H](C(=O)O)c6cc(O)cc(O)c6-c6cc4ccc6O)[C@H](O)c4ccc(c(Cl)c4)O5)O[C@H](CO)[C@@H](O)[C@@H]3O)O[C@@H](C)[C@H]2O)cc1 [Compound 7] | 0.063 µg/mL | – | –
6 | CN[C@H](CC(C)C)C(=O)N[C@H]1C(=O)N[C@@H](CC(N)=O)C(=O)N[C@H]2C(=O)N[C@H]3C(=O)N[C@H](C(=O)N[C@H](C(=O)O)c4cc(O)cc(O)c4-c4cc3ccc4O)[C@H](O[C@H]3C[C@](C)(N)[C@@H](O)[C@H](C)O3)c3ccc(c(Cl)c3)Oc3cc2cc(c3O[C@@H]2O[C@H](CO)[C@@H](O)[C@H](O)[C@H]2O[C@H]2C[C@](C)(NCc3ccc(-c4ccc(Cl)cc4)cc3)[C@@H](O)[C@H](C)O2)Oc2ccc(cc2Cl)[C@H]1O [Oritavancin] | – | > 100 µM | Direction of response (↑↓) [2]: ↓; MEC ([2]; n = 3): 76.5 µM
7 | CCCCCCCNC(N)=Nc1ccc(CN[C@@]2(C)C[C@H](O[C@H]3[C@H](Oc4c5cc6cc4Oc4ccc(cc4Cl)[C@@H](O)[C@@H](NC(=O)[C@@H](CC(C)C)NC)C(=O)N[C@@H](CC(N)=O)C(=O)N[C@H]6C(=O)N[C@H]4C(=O)N[C@H](C(=O)N[C@H](C(=O)O)c6cc(O)cc(O)c6-c6cc4ccc6O)[C@H](O)c4ccc(c(Cl)c4)O5)O[C@H](CO)[C@@H](O)[C@@H]3O)O[C@@H](C)[C@H]2O)cc1 [Compound 5] | 0.031 µg/mL | – | AC50 ([2]; n = 3): > 100 µM
8 | CCCCCCCCCCNCCN[C@@]1(C)C[C@H](O[C@H]2[C@H](Oc3c4cc5cc3Oc3ccc(cc3Cl)[C@@H](O)[C@@H](NC(=O)[C@@H](CC(C)C)NC)C(=O)N[C@@H](CC(N)=O)C(=O)N[C@H]5C(=O)N[C@H]3C(=O)N[C@H](C(=O)N[C@H](C(=O)O)c5cc(O)c(CNCP(=O)(O)O)c(O)c5-c5cc3ccc5O)[C@H](O)c3ccc(c(Cl)c3)O4)O[C@H](CO)[C@@H](O)[C@@H]2O)O[C@@H](C)[C@H]1O [Telavancin, reference compound] | – | > 100 µM | –
